In US12304912B2, “Fused bicyclic RAF inhibitors and methods for use thereof” (Jazz Pharmaceuticals Ireland Limited, priority 2020, dated 2025):

Columns and labels:
[1] = Solubility (Sol), medium not stated; assay type: physicochemical; conditions: cells not marked (FESSIF)
[2] = system: RAF dimers in HCT-116 cells; assay: HCT-116 AlphaLISA SureFire pERK1/2 cellular assay (dimer); assay type: cell-based; conditions: Homo sapiens, HCT-116; HCT116 cells pre-dosed with 1 μM Encorafenib, 1 hr; read-out: pERK HCT116 dimer (1 hr) pIC50 (converted)
Method: (§1) The human HCT-116 colorectal carcinoma cell line (ATCC CCL-247) endogenously expresses the KRAS^G13D mutation, which leads to constitutive activation of the MAP kinase pathway and phosphorylation of ERK. […] Assay read outs took place 2 or 24 hours after dosing with compounds. On the first day, HCT-116 cells were harvested, resuspended in growth medium (McCoys5A with Glutamax (Life Technologies 36600021) and 10% heat-inactivated fetal bovine serum (Sigma F9665)), and counted. Cells were plated in 100 μl per well in each well of a 96-well culture dish (Sigma CLS3598) to a final density of 30,000 (2 hr read) or 15,000 (24 hr read) cells per well and incubated over night at 37° C. and 5% CO2. On day 2, the growth medium was exchanged for dosing medium (McCoys5A with Glutamax (Life Technologies 36600021) and 1% heat-inactivated fetal bovine serum (Sigma F9665)) and the cells were dosed with compounds to produce a 10-point dose response, where the top concentration was 1 μM and subsequent concentrations were at 1/3 log dilution intervals. A matched DMSO control was included. The cells were subsequently incubated for either 2 or 24 hours at 37° C. and 5% CO2. After incubation, media was removed and the cells were incubated with lysis buffer containing phosphatase inhibitors for 15 minutes at room temperature. Cell lysates were transferred to a 12 area 96 well white Optiplate™ (Perkin Elmer 6005569) and incubated with anti-mouse IgG acceptor beads, a biotinylated anti-ERK1/2 rabbit antibody recognizing both phosphorylated and non-phosphorylated ERK1/2, a mouse antibody targeted to the Thr202/Tyr204 epitope and recognizing phosphorylated ERK proteins only, and streptavidin-coated donor beads. The biotinylated antibody binds to the streptavidin-coated donor beads and the phopsho-ERK1/2 antibody binds to the acceptor beads. Plates were read on an EnVision reader (Perkin Elmer) and excitation of the beads at 680 nm with a laser induced the release of singlet oxygen molecules from the donor beads that trigger energy transfer to the acceptor beads in close proximity, producing a signal that can be measured at […]. Both antibodies bound to phosphorylated ERK proteins, bringing the donor and acceptor beads into close proximity. All data were analyzed using the Dotmatics or GraphPad Prism software packages. Inhibition of ERK phosphorylation was assessed by determination of the absolute IC50 value, which is defined as the concentration of compound required to decrease the level of phosphorylated ERK proteins by 50% when compared to DMSO control.
HCT-116 AlphaLISA SureFire pERK1/2 Cellular Assay (Dimer)
The human HCT-116 colorectal carcinoma cell line (ATCC CCL-247) endogenously expresses the KRAS^G13D mutation, which leads to constitutive activation of the MAP kinase pathway and phosphorylation of ERK. First generation RAF inhibitors can promote RAF dimer formation in KRAS mutant tumours leading to a paradoxical activation of the pathway. To determine whether compounds can circumvent this problem and inhibit RAF dimers in HCT-116 cells, they were tested using AlphaLISA® SureFire® technology (Perkin Elmer p-ERK1/2 p-T202/Y204 assay kit ALSU-PERK-A10K). The main procedure is essentially the same as described above, with the following adjustments: Cells were seeded with the seeding density of 30,000 cells per well. On the second day (the day of dosing) no medium change was performed and the cells were dosed with 1 μM of Encorafenib for 1 hour (at 37° C. and 5% CO2) to induce RAF dimers and promote paradoxical dimer-dependent pERK signalling. After incubation, the cells were washed, 100 μl fresh growth medium was added, and cells were dosed with compounds of interest to produce a 10-point dose response, where the top concentration was 10 μM and subsequent concentrations are at 1/2 log dilution intervals. Cells were incubated for another hour at 37° C. and 5% CO2 before lysis and processing with the pERK AlphaLISA® SureFire® kit as described above. […]

[3] = Plasma protein binding assay, human plasma (hPPB); assay type: in vitro ADME; conditions: 5 μM, equilibrium dialysis 4 hours 37° C.
In short: (§2)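 Equilibrium dialysis of 5 μM compound in previously frozen human or mouse plasma against phosphate buffer, 4 h at 37 °C. Both chambers quantified by LC-MS/MS; % free = (1−((PC−PF)/PC))×100.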

[4] = Microsomal stability assay, human liver microsomes (HLM); assay type: in vitro ADME; conditions: 0.5 mg/mL protein, 1 μM substrate
In short: (§3)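 Substrate depletion: 1 μM compound incubated at 37° C. with cryopreserved mouse or human liver microsomes at 0.5 mg·mL^−1 protein. Timed aliquots quenched in ice-cold organic solvent and measured by LC-MS/MS; t1/2 and CLint derived from the slope of ln % remaining versus time.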

[5] = system: BRAF monomers in A375 cells; assay: A375 AlphaLISA SureFire pERK1/2 cellular assay (monomer); assay type: cell-based; conditions: Homo sapiens, A-375; A375 cells, 1 hr; read-out: pERK A375 (1 hr) pIC50 (converted)
Method: as §1
A375 AlphaLISA SureFire pERK1/2 Cellular Assay (Monomer)
The human A375 melanoma cell line (ATCC CRL-1619) endogenously expresses the BRAF^V600E mutation, which leads to constitutive activation of the MAP kinase pathway and phosphorylation of ERK. In BRAF^V600E mutant tumours, BRAF signals as a monomer to activate ERK. To determine whether compounds can inhibit BRAF monomers in A375 cells, they were tested using AlphaLISA® SureFire® technology (Perkin Elmer p-ERK1/2 p-T202/Y204 assay kit ALSU-PERK-A10K). The main procedure is essentially the same as described above for HCT-116 cells, with the following adjustments: The A375 cells were cultivated and dosed in Dulbecco's modified Eagle's medium containing 4.5 g/L D-glucose (Sigma D6546), 10% heat-inactivated fetal bovine serum (Sigma F9665), and 1% Sodium-Pyruvate (Sigma S8636), and seeded with a seeding density of 30,000 cells per well. No media exchange was performed before dosing with compounds to produce a 10-point dose response, where the top concentration was 10 μM and subsequent concentrations were at 1/2 log dilution intervals. Subsequently, the cells were incubated for 1 hour at 37° C. and 5% CO2 before lysis.

[6] = Microsomal stability assay, mouse liver microsomes (MLM); assay type: in vitro ADME; conditions: 0.5 mg/mL protein, 1 μM substrate
In short: as §3

[7] = Plasma protein binding assay, mouse plasma (mPPB); assay type: in vitro ADME; conditions: 5 μM, equilibrium dialysis 4 hours 37° C.
In short: as §2

Structure (SMILES) | Sol [1] | IC50 [2] | hPPB (% free) [3] | microsomal CLint at 1 μM [4] | IC50 [5] | microsomal CLint at 1 μM [6] | mPPB (% free) [7]
O=C1CCc2c(Oc3ccc4c(c3)CC(c3nc(-c5ccccc5C(F)(F)F)c[nH]3)CO4)ccnc2N1 (stereo not shown) [Compound 4, 5-[3-[4-[2-(trifluoromethyl)phenyl]-1H-imidazol-2-yl]chroman-6-yl]oxy-3,4-dihydro-1H-1,8-naphthyridin-2-one] | <1.3 mg/L | 269 nM | <0.1 % free | 261 µL/min/mg | 97.7 nM | 121 µL/min/mg | 0.5 % free
O=C1CCc2c(Oc3ccc4c(c3)CC(c3nc(-c5cc(F)ccc5F)c[nH]3)CO4)ccnc2N1 (stereo not shown) [Compound 5, 5-[3-[4-(2,5-difluorophenyl)-1H-imidazol-2-yl]chroman-6-yl]oxy-3,4-dihydro-1H-1,8-naphthyridin-2-one] | <1.2 mg/L | 191 nM | 0.3 % free | 33.9 µL/min/mg | 186 nM | 28.5 µL/min/mg | 0.4 % free
CC(C)NCc1cc(-c2c[nH]c(C3COc4ccc(Oc5ccnc6c5CCC(=O)N6)cc4C3)n2)cc(C(F)(F)F)c1 (stereo not shown) [Compound 6, 5-[3-[4-[3-[(isopropylamino)methyl]-5-(trifluoromethyl)phenyl]-1H-imidazol-2-yl]chroman-6-yl]oxy-3,4-dihydro-1H-1,8-naphthyridin-2-one] | <1.4 mg/L | 447 nM | 2.4 % free | 33.4 µL/min/mg | 977 nM | 18.1 µL/min/mg | 1.3 % free
CN(C)Cc1cc(C(F)(F)F)cc2nc(C3COc4ccc(Oc5ccnc6c5CCC(=O)N6)cc4C3)[nH]c12 (stereo not shown) [Compound 33] | 7 mg/L | 661 nM | 2 % free | 77.3 µL/min/mg | 380 nM | 37 µL/min/mg | 3.1 % free
Cc1ccccc1-c1c[nH]c(C2COc3ccc(Oc4ccnc5c4CCC(=O)N5)cc3C2)n1 (stereo not shown) [Compound 2, 5-[3-[4-(o-tolyl)-1H-imidazol-2-yl]chroman-6-yl]oxy-3,4-dihydro-1H-1,8-naphthyridin-2-one] | <1.1 mg/L | 58.9 nM | 0.3 % free | 147 µL/min/mg | 12.6 nM | 85.8 µL/min/mg | 1 % free
O=C1CCc2c(Oc3ccc4c(c3)CC(c3nc(-c5ccc(Cl)cc5)c[nH]3)CO4)ccnc2N1 (stereo not shown) [Compound 11, 5-[3-[4-(4-chlorophenyl)-1H-imidazol-2-yl]chroman-6-yl]oxy-3,4-dihydro-1H-1,8-naphthyridin-2-one] | <1.2 mg/L | 214 nM | 0.5 % free | 10.3 µL/min/mg | 257 nM | 29.1 µL/min/mg | 0.1 % free
O=C1CCc2c(Oc3ccc4c(c3)CN(C(=O)NCc3ccccc3)CC4)ccnc2N1 [Compound 48] | <1.1 mg/L | 7240 nM | 2 % free | 40.5 µL/min/mg | 9120 nM | 38.4 µL/min/mg | 3 % free
N#Cc1ccc(-c2c[nH]c(C3COc4ccc(Oc5ccnc6c5CCC(=O)N6)cc4C3)n2)cc1 (stereo not shown) [Compound 21] | <1.2 mg/L | 275 nM | 0.7 % free | 15.6 µL/min/mg | 933 nM | 23.2 µL/min/mg | 1.6 % free
O=C1CCc2c(Oc3ccc4c(c3)CC(c3nc(-c5cccc(F)c5)c[nH]3)CO4)ccnc2N1 (stereo not shown) [Compound 15, 5-[3-[4-(3-fluorophenyl)-1H-imidazol-2-yl]chroman-6-yl]oxy-3,4-dihydro-1H-1,8-naphthyridin-2-one] | <1.1 mg/L | 67.6 nM | 0.2 % free | 39.9 µL/min/mg | 24 nM | 33.9 µL/min/mg | 1.3 % free
COc1ccc(-c2c[nH]c(C3COc4ccc(Oc5ccnc6c5CCC(=O)N6)cc4C3)n2)cc1 (stereo not shown) [Compound 10, 5-[3-[4-(4-methoxyphenyl)-1H-imidazol-2-yl]chroman-6-yl]oxy-3,4-dihydro-1H-1,8-naphthyridin-2-one] | <1.2 mg/L | 282 nM | 0.6 % free | 89.1 µL/min/mg | 832 nM | 45.9 µL/min/mg | 0.7 % free
Cc1cc(C(F)(F)F)cc2nc(C3COc4ccc(Oc5ccnc6c5CCC(=O)N6)cc4C3)[nH]c12 (stereo not shown) [Compound 31] | <1.2 mg/L | 871 nM | <0.1 % free | 34.6 µL/min/mg | 126 nM | 26 µL/min/mg | 0.2 % free
O=C1CCc2c(Oc3ccc4c(c3)CC(c3nc(-c5ccc(C(F)(F)F)cc5)c[nH]3)CO4)ccnc2N1 (stereo not shown) [Compound 20, 5-[3-[4-[4-(trifluoromethyl)phenyl]-1H-imidazol-2-yl]chroman-6-yl]oxy-3,4-dihydro-1H-1,8-naphthyridin-2-one] | <1.3 mg/L | 603 nM | 0.1 % free | 16.9 µL/min/mg | 741 nM | 3 µL/min/mg | 0.1 % free
CN(C)Cc1cc(-c2c[nH]c(C3COc4ccc(Oc5ccnc6c5CCC(=O)N6)cc4C3)n2)cc(C(F)(F)F)c1 (stereo not shown) [Compound 7, 5-[3-[4-[3-[(dimethylamino)methyl]-5-(trifluoromethyl)phenyl]-1H-imidazol-2-yl]chroman-6-yl]oxy-3,4-dihydro-1H-1,8-naphthyridin-2-one] | <1.4 mg/L | 191 nM | 1.9 % free | 67.9 µL/min/mg | 692 nM | 39.2 µL/min/mg | 0.9 % free
